Data reported in PubChem BioAssay (NCI).
Several values for one entry are separate records, joined by “and”; a condition that tells them apart may be missing. Equal entries are not always repeated.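 Following 48 hours of exposure in 96-well plates, responses at five concentrations were used to interpolate endpoints linearly. Here, GI50 denotes the concentration required for 50% inhibition of growth. TGI marks complete inhibition of growth.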

test system: MDA-MB-468 breast; assay: inhibition of tumour cell growth, NCI panel, 48 h

| Structure (SMILES) | GI50 | TGI |
| --- | --- | --- |
| O=C(c1ccccc1)N(C(=S)NCCc1ccc(Cl)cc1)c1ccc(Cl)cc1 | 5.41 µM | 33.4 µM |
| COc1ccc2c(c1)c(-c1nonc1-c1cn(C)c3ccccc13)cn2C | 0.33 µM |  |
| COc1ccc2cnc(N)c(C#Cc3cc(C(=O)Nc4ccc(CN5CCN(C)CC5)c(C(F)(F)F)c4)cnc3C)c2c1 | 8.83 µM | 27.6 µM |
| Cc1cc2nc(CS)[nH]c2cc1C | 13 µM | 30.4 µM |
| CCOC(=O)c1c(NC(=O)c2cccc(C(F)(F)F)c2)sc2c(CN3CCN(C)CC3)c(O)ccc12 | 1.65 µM | 3.25 µM |
| C=C1CC[C@@H]2C(C)(C)[C@H](O)CC[C@@]2(C)[C@@H]1COc1ccc2ccc(=O)oc2c1 | 20.5 µM | 78.2 µM |
| COc1ccc(C(=O)N2N=C(c3ccc(Br)cc3)CC2c2cn(-c3ccccc3)nc2-c2ccccc2)cc1 (centres undefined) | 6.59 µM | > 50 µM |
| CN1CCN(CCOc2ccc(-c3cnc4c(-c5cccc(F)c5F)cnn4c3)cc2)CC1 | 1.45 µM | 3.06 µM |
| CN1CCN(CCCOc2ccc3ncnc(Nc4ccc(OCc5cccc(F)c5)c(Cl)c4)c3c2)CC1 | 0.367 µM | 1.84 µM |
| COc1ccc(OC)c(N(CCN2C(=O)c3ccccc3C2=O)C(=O)CCl)c1 | 4.43 µM | 22 µM |
| CCOC(=O)C(=Cc1ccc(-c2ccccc2)cc1)C(=O)OCC | 3.24 µM | 10.1 µM |
| O=C1/C(=C/c2ccc(Cl)cc2Cl)CN(S(=O)(=O)c2ccccc2)C/C1=C\c1ccc(Cl)cc1Cl | 0.687 µM | 2.73 µM |
| C[C@H](Nc1ccc2c(c1)OCCn1cc(N3C(=O)OC[C@H]3C(F)F)nc1-2)C(N)=O | 0.343 µM | 6.27 µM |
| COC(=O)c1ccc2[nH]c(O)c(C(=Nc3ccc(N(C)C(=O)CN4CCN(C)CC4)cc3)c3cccc(OC)c3)c2c1 | 1.44 µM | 3.5 µM |
| [Cl][Ru].c1ccc(-c2cc(-c3ccccn3)nc(-c3ccccn3)c2)cc1.c1ccc(-c2ccnc3c2ccc2c(-c4ccccc4)ccnc23)cc1 | 0.208 µM | 0.635 µM |
| O=C1Nc2ccccc2/C1=C/C(=N/c1nnc(-c2ccc(Cl)cc2)s1)c1ccccc1 | 2.02 µM | 6.27 µM |
| c1ccc(-c2n(Cc3ccc4ccccc4n3)cc[n+]2Cc2ccc3ccccc3n2)cc1 | 0.221 µM | 1.43 µM |
| COc1ccc(-c2nc(S(=O)(=O)c3ccccc3)c(S(=O)CC(=O)N3CCC(C)CC3)o2)cc1 (centres undefined) | 1.63 µM | 4.65 µM |
| CCOc1cc2ncc(C#N)c(Nc3ccc(F)c(Cl)c3)c2cc1NC(=O)CC1CCSS1 (centres undefined) | 0.473 µM | 1.17 µM |
| CCn1cc(C2NC(=O)c3ccccc3N2)c2cccc(C)c21 (centres undefined) | 0.216 µM | 0.656 µM |
| COc1cc(Cl)cc(-c2nn(-c3cccc(NC(=O)c4cccc(C(F)(F)F)c4)c3)cc2-c2ccncc2)c1 | 4.26 µM | > 100 µM |
| COc1cccc(CNCCN2C(=O)c3ccc4c5c(ccc(c35)C2=O)C(=O)N(CCNCc2cccc(OC)c2)C4=O)c1 | 1.76 µM | 3.56 µM |
| Cc1ccc(C2CC(c3cccc(Nc4ccncc4)c3)=NN2c2cc(Cl)cc(Cl)c2)cc1 (centres undefined) | 1.41 µM | 2.84 µM |
| C=C1C(=O)O[C@H]2[C@H]1CC/C(COC(=O)NCc1ccc(Cn3c(=O)sn(CCCC)c3=O)cc1)=C\CC[C@@]1(C)O[C@@H]21 | 1.73 µM | 3.63 µM |
| Cc1ccc2c(c1)C(=O)C(c1c(-c3[nH]c(=O)c4ccc(C)cc4c3O)c(O)c3ccccc3c1O)=NC2=O | 0.313 µM | 0.987 µM |
| CCOC(=O)c1cnc2c(C)cc(C)cc2c1NCCCN(C)C | 2 µM | 8.45 µM |
| COc1cc2c(Nc3ccc(Cl)c(Cl)c3F)ncnc2cc1OCC1C[C@@H]2CN(C)C[C@@H]2C1 (some centres undefined) | 0.0241 µM and 0.0217 µM and 0.0212 µM | 0.175 µM and 0.633 µM and 0.213 µM |
| Cn1ccnc1C(=O)/C=C/c1ccc(C(=O)Nc2ccc(F)cc2)cc1 | 0.813 µM | 3.06 µM |
| Cc1cc(Cl)ccc1Nc1nc(C(F)(F)F)ccc1C(=O)N/N=C/c1cccc(O)c1 | 1.51 µM | 9.69 µM |
| O=S(=O)(Nc1cccc(Cl)c1)c1ccc(-c2cnc(C3CC3)o2)cc1 | 0.411 µM | 12.2 µM |
